This is an account of results in paper PMC5808925 (Nature, 2017).

This test has as its system recombinant HLA-DR*0401. Format: binding, human.

For the sequence IKNKIDGETTDYAAPV, the “affinity for HLA-DR*0401” value is recorded as “high affinity”.
